Values joined by “and” are separate entries in the source; they are usually repeats but may differ in a detail not shown here. Equal entries are not always repeated. Where two headings read alike, the source gives them in different places.
Tests used:
Format in all cases: biochemical
[1] = ABTS·+ decolourisation capacity; settings: mean ± SD, n = 3
Summary of the method: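 ABTS·+ working solution in 0.2 M phosphate buffer, pH 7.4, was adjusted to A729 0.8 ± 0.05, and 100 μl was mixed with 200 μl sample; absorbance was read at 729 nm after 10 min, in triplicate. Inhibition was taken relative to a phosphate-buffer control, and IC50 was obtained graphically from dose-inhibition curves.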

[2] = DPPH· scavenging; settings: mean ± SD, n = 3;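 further: colourimetric DPPH radical scavenging in 96-well plates, absorbance read-out, percent inhibition relative to ethanol control absorbance, IC50 derived graphically from dose-inhibition curves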
[3] = Fluorescent AGEs formation in a BSA-fructose/glucose system; settings: for inhibition of fluorescent AGEs formation (BSA-抗糖化), single replicate: individual replicate; for inhibition of fluorescent AGEs formation (BSA-抗糖化), 平均 (mean): mean of 3 replicates; for IC50: mean ± SD, n = 3, read-out: BSA-glycation IC50
Summary of the method: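 BSA glycated in vitro with D-glucose and D-fructose while test samples, dissolved in DMSO:water (1:4), were present. Percent inhibition of fluorescent AGE formation calculated from fluorescence corrected for sample-only and BSA-free blanks; triplicate.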

[4] = FRAP total antioxidant capacity;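 further: colourimetric FRAP kit assay read as absorbance in 96-well plates, values as mM FeSO4 via standard curve, EC1 being sample concentration matching 1.0 mmol/L FeSO4, Trolox positive control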
[5] = target: T1, COX-2 (Homo sapiens, UniProt P35354); assay: Anti-COX-2 assay (COX-2 Inhibitor Screening Kit)
T1 construct: purchased Beyotime S0168
T1 sequence (P35354 18-604): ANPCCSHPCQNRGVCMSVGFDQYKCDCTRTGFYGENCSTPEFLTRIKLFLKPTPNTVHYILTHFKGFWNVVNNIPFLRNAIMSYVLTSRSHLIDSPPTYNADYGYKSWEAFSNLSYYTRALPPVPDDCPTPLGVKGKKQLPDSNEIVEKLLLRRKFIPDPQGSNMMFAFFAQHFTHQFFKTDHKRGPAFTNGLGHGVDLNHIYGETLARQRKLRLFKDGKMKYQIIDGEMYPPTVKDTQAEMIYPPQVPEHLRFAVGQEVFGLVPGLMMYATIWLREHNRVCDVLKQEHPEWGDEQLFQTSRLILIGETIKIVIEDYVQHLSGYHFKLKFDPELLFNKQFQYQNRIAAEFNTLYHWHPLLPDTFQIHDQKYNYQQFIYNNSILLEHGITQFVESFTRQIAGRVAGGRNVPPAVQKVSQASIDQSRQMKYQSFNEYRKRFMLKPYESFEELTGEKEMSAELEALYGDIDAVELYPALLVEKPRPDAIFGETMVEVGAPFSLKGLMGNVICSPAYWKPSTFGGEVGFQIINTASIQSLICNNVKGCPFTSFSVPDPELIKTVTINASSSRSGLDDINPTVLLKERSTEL

[6] = lower part of sheet (compound series)

## COc1cc(-c2oc3cc(O)cc(O)c3c(=O)c2OC2OC(CO)C(O)C(O)C2O)ccc1O (stereo not drawn) [compound 32, Isorhamnetin-3-O-glucoside]
[1]
  IC50: 44.7 ± 1.52 µM
[2]
  IC50: 2370 µM
[3]; 15.625 µM, listed as T14, 15.625 µM
  inhibition of fluorescent AGEs formation (BSA-抗糖化), single replicate: 6.47% and 9.81% and 6.23%
[3]; 15.625 µM
  inhibition of fluorescent AGEs formation (BSA-抗糖化), 平均 (mean): 7.50%
[3]; 31.25 µM, listed as T14, 31.25 µM
  inhibition of fluorescent AGEs formation (BSA-抗糖化), single replicate: 13.37% and 12.51% and 13.56%
[3]; 31.25 µM
  inhibition of fluorescent AGEs formation (BSA-抗糖化), 平均 (mean): 13.15%
[3]; 62.5 µM, listed as T14, 62.5 µM
  inhibition of fluorescent AGEs formation (BSA-抗糖化), single replicate: 22.22% and 24.18% and 24.11%
[3]; 62.5 µM
  inhibition of fluorescent AGEs formation (BSA-抗糖化), 平均 (mean): 23.51%
[3]; 125 µM, listed as T14, 125 µM
  inhibition of fluorescent AGEs formation (BSA-抗糖化), single replicate: 35.72% and 35.84% and 36.17%
[3]; 125 µM
  inhibition of fluorescent AGEs formation (BSA-抗糖化), 平均 (mean): 35.91%
[3]; 250 µM, listed as T14, 250 µM
  inhibition of fluorescent AGEs formation (BSA-抗糖化), single replicate: 54.28% and 53.83% and 54.39%
[3]; 250 µM
  inhibition of fluorescent AGEs formation (BSA-抗糖化), 平均 (mean): 54.17%
[3]; 500 µM, listed as T14, 500 µM
  inhibition of fluorescent AGEs formation (BSA-抗糖化), single replicate: 70.40% and 70.98% and 71.44%
[3]; 500 µM
  inhibition of fluorescent AGEs formation (BSA-抗糖化), 平均 (mean): 70.94%
[3]; 1000 µM, listed as T14, 1000 µM
  inhibition of fluorescent AGEs formation (BSA-抗糖化), single replicate: 83.59% and 83.42% and 83.56%
[3]; 1000 µM
  inhibition of fluorescent AGEs formation (BSA-抗糖化), 平均 (mean): 83.53%
[3]; 2000 µM, listed as T14, 2000 µM
  inhibition of fluorescent AGEs formation (BSA-抗糖化), single replicate: 91.04% and 91.39% and 91.09%
[3]; 2000 µM
  inhibition of fluorescent AGEs formation (BSA-抗糖化), 平均 (mean): 91.17%
[3]; 4000 µM (series head 'T9 4000µM', 2-fold dilutions), listed as T14
  inhibition of fluorescent AGEs formation (BSA-抗糖化), single replicate: 95.57% and 95.55% and 95.41%
[3]; 4000 µM
  inhibition of fluorescent AGEs formation (BSA-抗糖化), 平均 (mean): 95.51%
[3]
  IC50: 209 ± 3.1 µM
[4]; [6]
  FRAP EC1: 2757.3 ± 103.8 µM
[4]; mean ± SD, n = 3
  FRAP EC1: 2,757.3 ± 103.8 μM
[5]; 31.25 μM, single replicates
  inhibition at 31.25 µM: 5.99%
[5]; 31.25 μM, single replicates, listed as T14, 31.25 µM
  COX-2 inhibition: 4.35%
[5]; 62.5 μM, single replicates, listed as T14, 62.5 µM
  COX-2 inhibition: -8.14% and 8.77% and -5.55%
[5]; 125 μM, single replicates, listed as T14, 125 µM
  COX-2 inhibition: 16.41% and 9.67% and 1.80%
[5]; 250 μM, single replicates, listed as T14, 250 µM
  COX-2 inhibition: 18.89% and 38.58% and 20.11%
[5]; 500 μM, single replicates
  inhibition at 500 µM: 53.6%
[5]; 500 μM, single replicates, listed as T14, 500 µM
  COX-2 inhibition: 61.95% and 42.08%
[5]; 1000 μM, single replicates
  inhibition at 1000 µM: 77.5%
[5]; 1000 μM, single replicates, listed as T14, 1000 µM
  COX-2 inhibition: 79.82% and 70.09%
[5]; 2000 μM (2mM), single replicates
  inhibition at 2000 µM: 76.1%
[5]; 2000 μM (2mM), single replicates, listed as T14
  COX-2 inhibition: 78.14% and 68.80%
[5]; mean ± SD, n = 3, nd, not detected, read-out: COX-2 IC50
  IC50: 535 ± 150 µM
[5]; supplement sheet COX, read-out: COX-2 IC50, single replicate
  IC50: 515 µM and 396 µM and 694 µM

## Kaempferol-3-O-rutinoside [compound 28]
[1]
  IC50: 35.01 ± 0.22 µM
[2]
  IC50: > 5000 µM
[3]; 15.625 µM, listed as T12, 15.625 µM
  inhibition of fluorescent AGEs formation (BSA-抗糖化), single replicate: -0.31% and 7.28% and -2.72%
[3]; 15.625 µM
  inhibition of fluorescent AGEs formation (BSA-抗糖化), 平均 (mean): 1.41%
[3]; 31.25 µM, listed as T12, 31.25 µM
  inhibition of fluorescent AGEs formation (BSA-抗糖化), single replicate: 6.95% and 5.50% and 2.44%
[3]; 31.25 µM
  inhibition of fluorescent AGEs formation (BSA-抗糖化), 平均 (mean): 4.96%
[3]; 62.5 µM, listed as T12, 62.5 µM
  inhibition of fluorescent AGEs formation (BSA-抗糖化), single replicate: 13.47% and 13.89% and 14.50%
[3]; 62.5 µM
  inhibition of fluorescent AGEs formation (BSA-抗糖化), 平均 (mean): 13.95%
[3]; 125 µM, listed as T12, 125 µM
  inhibition of fluorescent AGEs formation (BSA-抗糖化), single replicate: 22.45% and 28.29% and 22.60%
[3]; 125 µM
  inhibition of fluorescent AGEs formation (BSA-抗糖化), 平均 (mean): 24.45%
[3]; 250 µM, listed as T12, 250 µM
  inhibition of fluorescent AGEs formation (BSA-抗糖化), single replicate: 38.13% and 38.77% and 37.66%
[3]; 250 µM
  inhibition of fluorescent AGEs formation (BSA-抗糖化), 平均 (mean): 38.19%
[3]; 500 µM, listed as T12, 500 µM
  inhibition of fluorescent AGEs formation (BSA-抗糖化), single replicate: 58.09% and 57.21% and 56.73%
[3]; 500 µM
  inhibition of fluorescent AGEs formation (BSA-抗糖化), 平均 (mean): 57.34%
[3]; 1000 µM, listed as T12, 1000 µM
  inhibition of fluorescent AGEs formation (BSA-抗糖化), single replicate: 74.99% and 76.95% and 73.93%
[3]; 1000 µM
  inhibition of fluorescent AGEs formation (BSA-抗糖化), 平均 (mean): 75.29%
[3]; 2000 µM, listed as T12, 2000 µM
  inhibition of fluorescent AGEs formation (BSA-抗糖化), single replicate: 85.90% and 86.14% and 85.80%
[3]; 2000 µM
  inhibition of fluorescent AGEs formation (BSA-抗糖化), 平均 (mean): 85.95%
[3]; 4000 µM (series head 'T9 4000µM', 2-fold dilutions), listed as T12
  inhibition of fluorescent AGEs formation (BSA-抗糖化), single replicate: 92.80% and 92.79% and 92.84%
[3]; 4000 µM
  inhibition of fluorescent AGEs formation (BSA-抗糖化), 平均 (mean): 92.81%
[3]
  IC50: 374 ± 18.1 µM
[4]; [6]
  FRAP EC1: >5000 µM
[5]
  COX-2 inhibition (in words): no inhibitory effects
[5]; 3.125 μM, single replicates, listed as T12, 3.125 µM
  COX-2 inhibition: 24.76% and 3.80%
[5]; 6.25 μM, single replicates, listed as T12, 6.25 µM
  COX-2 inhibition: 9.88% and 6.40% and 22.14%
[5]; 12.5 μM, single replicates, listed as T12, 12.5 µM
  COX-2 inhibition: -1.05% and 3.59% and 13.88%
[5]; 25 μM, single replicates, listed as T12, 25 µM
  COX-2 inhibition: -5.04% and -8.91% and 26.95%
[5]; 50 μM, single replicates, listed as T12, 50 µM
  COX-2 inhibition: -2.18% and -5.56% and 1.52%
[5]; 100 μM, single replicates, listed as T12, 100 µM
  COX-2 inhibition: 7.51% and -46.40% and 2.25%
[5]; 200 μM, single replicates, listed as T12, 200 µM
  COX-2 inhibition: -9.13% and -25.75% and 1.42%
